Laboratory results: US20230416248A1, “COMPOUNDS AND USES THEREOF” (Foghorn Therapeutics Inc., priority 2020, published 2023)
Where two headings read alike, the source gives them in different places.

Experiments:
BRG-1 = molecular target: T1, BRG-1 (Homo sapiens, UniProt P51532); experiment: ATPase catalytic activity of BRG-1, ADP-Glo in vitro biochemical assay; settings: 30 nM BRG-1, 400 μM ATP, read-out: BRG1 IC50
T1 construct: made in house; host or cells: High Five insect cells
Procedure, shortened: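 Biochemical ADP-Glo assay, BRG-1. Post-reaction: ATP depletion reagent, 40 min RT; ADP→ATP conversion/detection reagent, 60 min RT; luminescence read on plate luminometer.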

BRM = molecular target: T2, BRM (Homo sapiens, UniProt P51531); experiment: ATPase catalytic activity of BRM, ADP-Glo in vitro biochemical assay; settings: for IC50: 30 nM BRM, 400 μM ATP; for Ratio* (BRG1 IC50 (μM) divided by BRM IC50 (μM)): selectivity ratio BRG1 IC50 / BRM IC50
T2 construct: made in house; host or cells: High Five insect cells
Procedure, shortened: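 Recombinant BRM (30 nM) hydrolysed 400 μM ATP with 20 nM salmon sperm DNA in pH 8 Tris buffer containing 20 mM MgCl2, 50 mM NaCl, 0.1% Tween-20 and 1 mM DTT, 1 h at room temperature. ADP formed was quantified by ADP-Glo luminescence.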

[1] = ATPase catalytic activity, ADP-Glo

T1 sequence (P51532 whole entry): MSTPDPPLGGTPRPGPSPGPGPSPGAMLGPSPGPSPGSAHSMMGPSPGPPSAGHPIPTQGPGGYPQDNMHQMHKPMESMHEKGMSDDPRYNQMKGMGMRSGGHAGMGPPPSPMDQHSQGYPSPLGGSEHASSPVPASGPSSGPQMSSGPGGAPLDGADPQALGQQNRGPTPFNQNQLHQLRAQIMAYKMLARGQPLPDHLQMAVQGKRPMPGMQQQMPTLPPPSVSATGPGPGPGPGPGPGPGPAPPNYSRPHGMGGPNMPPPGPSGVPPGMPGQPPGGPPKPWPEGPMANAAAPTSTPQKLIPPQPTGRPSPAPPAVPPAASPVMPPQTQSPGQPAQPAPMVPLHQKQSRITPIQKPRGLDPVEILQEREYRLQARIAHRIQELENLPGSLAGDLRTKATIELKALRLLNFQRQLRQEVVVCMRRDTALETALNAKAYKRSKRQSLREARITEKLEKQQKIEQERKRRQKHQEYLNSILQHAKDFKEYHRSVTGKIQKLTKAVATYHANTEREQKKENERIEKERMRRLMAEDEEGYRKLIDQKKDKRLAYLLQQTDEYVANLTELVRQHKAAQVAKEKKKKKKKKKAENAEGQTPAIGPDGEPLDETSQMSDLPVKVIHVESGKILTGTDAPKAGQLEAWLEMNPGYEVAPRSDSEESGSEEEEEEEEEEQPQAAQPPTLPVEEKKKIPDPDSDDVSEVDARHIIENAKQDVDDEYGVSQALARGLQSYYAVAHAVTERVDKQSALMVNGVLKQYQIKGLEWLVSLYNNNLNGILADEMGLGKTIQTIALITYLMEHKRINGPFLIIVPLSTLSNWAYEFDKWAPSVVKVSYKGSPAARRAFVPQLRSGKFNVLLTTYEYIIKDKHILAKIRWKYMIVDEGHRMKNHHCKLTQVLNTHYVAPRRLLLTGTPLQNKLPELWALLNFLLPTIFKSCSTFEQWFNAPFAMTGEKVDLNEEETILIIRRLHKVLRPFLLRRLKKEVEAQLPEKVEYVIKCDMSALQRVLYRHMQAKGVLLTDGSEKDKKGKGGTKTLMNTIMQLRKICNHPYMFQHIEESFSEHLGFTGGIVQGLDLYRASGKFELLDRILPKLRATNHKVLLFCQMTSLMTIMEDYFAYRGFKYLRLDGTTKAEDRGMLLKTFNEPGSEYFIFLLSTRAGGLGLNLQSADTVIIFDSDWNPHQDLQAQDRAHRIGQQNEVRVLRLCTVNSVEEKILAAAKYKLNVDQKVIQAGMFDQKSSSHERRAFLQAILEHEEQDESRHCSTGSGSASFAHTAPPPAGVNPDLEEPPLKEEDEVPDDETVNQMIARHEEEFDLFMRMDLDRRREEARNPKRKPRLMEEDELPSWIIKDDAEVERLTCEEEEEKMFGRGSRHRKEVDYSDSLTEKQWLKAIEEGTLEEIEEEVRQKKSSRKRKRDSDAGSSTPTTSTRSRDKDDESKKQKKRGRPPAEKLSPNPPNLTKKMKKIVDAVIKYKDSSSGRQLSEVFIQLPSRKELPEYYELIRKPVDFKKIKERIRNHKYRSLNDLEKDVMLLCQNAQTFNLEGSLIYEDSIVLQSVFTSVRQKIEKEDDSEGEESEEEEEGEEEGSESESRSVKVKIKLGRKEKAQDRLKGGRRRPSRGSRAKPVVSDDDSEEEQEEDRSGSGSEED
T2 sequence (P51531 whole entry): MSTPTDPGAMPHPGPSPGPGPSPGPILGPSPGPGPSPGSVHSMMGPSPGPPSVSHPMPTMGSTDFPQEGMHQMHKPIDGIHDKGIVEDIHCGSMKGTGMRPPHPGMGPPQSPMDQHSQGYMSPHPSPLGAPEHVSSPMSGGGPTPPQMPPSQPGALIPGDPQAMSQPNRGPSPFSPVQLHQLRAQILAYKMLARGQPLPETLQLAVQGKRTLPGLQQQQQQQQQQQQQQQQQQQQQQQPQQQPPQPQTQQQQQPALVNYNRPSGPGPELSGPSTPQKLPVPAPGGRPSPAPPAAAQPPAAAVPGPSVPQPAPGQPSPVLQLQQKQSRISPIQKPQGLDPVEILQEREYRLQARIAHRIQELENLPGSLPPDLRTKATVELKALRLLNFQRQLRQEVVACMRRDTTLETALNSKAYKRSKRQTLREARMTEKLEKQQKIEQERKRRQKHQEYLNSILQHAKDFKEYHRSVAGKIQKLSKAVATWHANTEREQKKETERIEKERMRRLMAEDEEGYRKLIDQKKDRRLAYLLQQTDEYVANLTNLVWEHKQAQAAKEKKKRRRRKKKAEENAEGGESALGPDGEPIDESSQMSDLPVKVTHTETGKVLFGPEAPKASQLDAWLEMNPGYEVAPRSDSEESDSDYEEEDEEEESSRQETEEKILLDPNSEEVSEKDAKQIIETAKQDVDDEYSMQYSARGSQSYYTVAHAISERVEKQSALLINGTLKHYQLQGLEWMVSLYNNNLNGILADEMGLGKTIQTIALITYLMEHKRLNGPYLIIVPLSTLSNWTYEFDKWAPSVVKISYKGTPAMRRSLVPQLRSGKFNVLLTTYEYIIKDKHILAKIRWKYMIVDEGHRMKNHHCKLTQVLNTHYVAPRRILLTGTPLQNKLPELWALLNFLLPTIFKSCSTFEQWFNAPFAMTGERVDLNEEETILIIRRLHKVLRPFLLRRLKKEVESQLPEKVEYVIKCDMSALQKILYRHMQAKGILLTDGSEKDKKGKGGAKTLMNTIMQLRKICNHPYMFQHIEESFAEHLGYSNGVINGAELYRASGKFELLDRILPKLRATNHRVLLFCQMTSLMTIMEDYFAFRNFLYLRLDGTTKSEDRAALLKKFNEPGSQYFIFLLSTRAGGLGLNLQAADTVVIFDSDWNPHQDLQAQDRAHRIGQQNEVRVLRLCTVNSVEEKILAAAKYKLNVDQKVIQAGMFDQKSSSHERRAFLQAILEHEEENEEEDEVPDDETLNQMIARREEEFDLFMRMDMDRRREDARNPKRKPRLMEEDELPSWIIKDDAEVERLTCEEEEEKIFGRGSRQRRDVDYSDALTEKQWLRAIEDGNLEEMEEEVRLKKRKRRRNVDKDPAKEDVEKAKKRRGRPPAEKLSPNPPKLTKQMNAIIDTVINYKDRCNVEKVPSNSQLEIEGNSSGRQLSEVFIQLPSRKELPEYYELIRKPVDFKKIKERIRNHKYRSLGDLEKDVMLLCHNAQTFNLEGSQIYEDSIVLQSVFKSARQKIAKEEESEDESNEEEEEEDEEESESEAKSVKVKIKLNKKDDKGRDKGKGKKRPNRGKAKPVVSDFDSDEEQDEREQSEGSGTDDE

| IC50 (BRG-1; ADP-Glo ATPase assay) [nM] | IC50 (BRM; ADP-Glo ATPase assay) [nM] | Ratio* (BRG1 IC50 (μM) divided by BRM IC50 (μM)) (BRM) | IC50 (BRG-1; [1]) [nM] | IC50 (BRM; [1]) [nM] | Ratio* (BRM; ratio of BRG1 IC50 to BRM IC50) | Ratio* (BRM; ratio BRG1 IC50 / BRM IC50) | Structure (SMILES) |
| --- | --- | --- | --- | --- | --- | --- | --- |
| 176 | 12.9 | 13.71 |  |  |  |  | C[C@@H]1CN(c2cccc(-c3ccc4cnc(CNC(=O)c5ccc6c(c5)S(=O)(=O)CCOC6)cc4n3)c2)C[C@H](C)O1 [Compound 112] |
| 4930 | 433 | 11.38 |  |  |  |  | CO[C@H](C)c1cccc(-c2ccc3cnc(CNC(=O)c4ccc5c(c4)S(=O)(=O)CCOC5)cc3n2)n1 [Compound 68] |
|  |  |  | 679 | 32.6 | 20.83 |  | O=C(NCc1cc2nc(N3CCCc4ccc(N5CCC5)nc43)ccc2cn1)c1ccc2c(c1)S(=O)(=O)CCOC2 [Compound 566] |
|  |  |  | 250 | 22.1 | 11.34 |  | O=C(NCc1cc2nc(N3CCCc4c(F)ccnc43)ccc2cn1)c1ccc2c(c1)S(=O)(=O)CCOC2 [Compound 526] |
| 136 | 12.9 | 10.58 |  |  |  |  | O=C(NCc1cc2nc(-c3cccc(N4CC[C@@H](F)C4)n3)ccc2cn1)c1ccc2c(c1)S(=O)(=O)CCOC2 [Compound 222] |
|  |  |  | 142 | 13.9 | 10.20 |  | COCCc1cnc2c(c1)CCCN2c1ccc2cnc(CNC(=O)c3ccc4c(c3)S(=O)(=O)CCOC4)cc2n1 [Compound 510] |
|  |  |  | 2540 | 90.4 | 28.12 |  | CC(F)(F)c1ccc2c(n1)N(c1ccc3cnc(CNC(=O)c4ccc5c(c4)S(=O)(=O)CCOC5)cc3n1)CCO2 [Compound 617] |
| 958 | 59.8 | 16.01 |  |  |  |  | CC(C)c1cccc(-c2ccc3cnc(CNC(=O)c4ccc5c(c4)S(=O)(=O)CCOC5)cc3n2)n1 [Compound 289] |
| 458 | 36.7 |  |  |  |  | 12.47 | O=C(NCc1cc2cc(N3CCOc4cnc(C5CC5)nc43)ccc2cn1)c1ccc2c(c1)S(=O)(=O)CCOC2 [Compound 822] |
|  |  |  | 4260 | 2340 | 1.82 |  | O=C(NCc1cc2nc(N3CCCCc4cccnc43)ccc2cn1)c1ccc2c(c1)S(=O)(=O)CCOC2 [Compound 469] |
|  |  |  | 969 | 32.7 | 29.69 |  | Cc1ccc2c(n1)N(c1ccc3cnc(CNC(=O)c4ccc5c(c4)S(=O)(=O)[C@@H](C)COC5)cc3c1)CCO2 [Compound 680] |
| 179 | 17.1 |  |  |  |  | 10.47 | O=C(NCc1cc2nc(N3CCOc4ccc(C56CC(C5)C6)nc43)ccc2cn1)c1ccc2c(c1)S(=O)(=O)CCOC2 [Compound 766] |
| 9.9 | 3 | 3.33 |  |  |  |  | Cc1cc(-c2cccc(-c3ccc4cnc(CNC(=O)c5ccc6c(c5)S(=O)(=O)CCOC6)cc4n3)n2)cc(C)n1 [Compound 169] |
| 827 | 59.3 | 13.95 |  |  |  |  | O=C(NCc1cc2nc(-c3cccc(OCC(F)F)n3)ccc2cn1)c1ccc2c(c1)S(=O)(=O)CCOC2 [Compound 167] |
| 382 | 22.5 | 16.99 |  |  |  |  | O=C(NCc1cc2nc(-c3ccc(F)c(OC(F)F)n3)ccc2cn1)c1ccc2c(c1)S(=O)(=O)CCOC2 [Compound 137] |
|  |  |  | 1270 | 34.7 | 36.53 |  | C[C@H]1COCc2ccc(C(=O)NCc3cc4nc(-c5cccc(C6CC6)n5)cnc4cn3)cc2S1(=O)=O [Compound 443] |
|  |  |  | 603 | 20.8 | 29.03 |  | O=C(NCc1cc2nc(-c3cccc(C4CC4)n3)cnc2cn1)c1cc(F)c2c(c1)S(=O)(=O)CCOC2 [Compound 424] |

| IC50 (BRG-1; ADP-Glo ATPase assay) [nM] | IC50 (BRM; ADP-Glo ATPase assay) [nM] | Ratio* (BRG1 IC50 (μM) divided by BRM IC50 (μM)) (BRM) | IC50 (BRG-1; [1]) [nM] | IC50 (BRM; [1]) [nM] | Ratio* (BRM; ratio of BRG1 IC50 to BRM IC50) | Ratio* (BRM; ratio BRG1 IC50 / BRM IC50) | Structure (SMILES) |
| --- | --- | --- | --- | --- | --- | --- | --- |
| 810 | 36.6 | 22.13 |  |  |  |  | COc1nn([C@H]2C[C@H](F)C2)cc1-c1ccc2cnc(CNC(=O)c3ccc4c(c3)S(=O)(=O)CCOC4)cc2c1 [Compound 149] |
|  |  |  | 1590 | 118 | 13.52 |  | O=C(NCc1cc2nc(-c3cncc(C4CC4)n3)ccc2cn1)c1cnc2c(c1)S(=O)(=O)CCCC2(F)F [Compound 434] |
|  |  |  | 159 | 9.5 | 16.64 |  | O=C(NCc1cc2nc(N3CCOc4cc(Cl)cnc43)ccc2cn1)c1cc(F)c2c(c1)S(=O)(=O)CCOC2 [Compound 691] |
|  |  |  | 99.5 | 11.7 | 8.52 |  | CN(C)c1cnc2c(c1)CCCN2c1ccc2cnc(CNC(=O)c3ccc4c(c3)S(=O)(=O)CCOC4)cc2n1 [Compound 441] |
|  |  |  | 1160 | 48 | 24.14 |  | O=C(NCc1cc2nc(N3CCCc4ccc(C5CCOC5)nc43)ccc2cn1)c1ccc2c(c1)S(=O)(=O)CCOC2 (stereo not drawn) [Compound 630] |
| 967 | 222 | 4.34 |  |  |  |  | O=C(NCc1cc2nc(-c3cccc4c3CCN4C3COC3)ccc2cn1)c1ccc2c(c1)S(=O)(=O)CCOC2 [Compound 198] |
| 667 | 40.2 |  |  |  |  | 16.58 | O=C(NCc1cc2nc(N3CCC4(CCC4)c4cccnc43)ccc2cn1)c1ccc2c(c1)S(=O)(=O)CCOC2 [Compound 723] |
|  |  |  | 88.3 | 10.1 | 8.79 |  | CO[C@H]1C[C@@H]1N(C)c1cccc(-c2ccc3cnc(CNC(=O)c4ccc5c(c4)S(=O)(=O)[C@@H](C)COC5)cc3n2)n1 [Compound 670] |
| 2250 | 122 |  |  |  |  | 18.41 | CS(=O)(=O)c1cc(C(=O)NCc2cc3nc(N4CCCc5cc(C6CC6)cnc54)ccc3cn2)cnc1C(F)F [Compound 724] |
| 200 | 34.9 | 5.74 |  |  |  |  | C[C@@H]1CN(c2cccc(-c3ccc4cnc(CNC(=O)c5ccc6c(c5)S(=O)(=O)CCN(C)C6)cc4n3)n2)C[C@H](C)O1 [Compound 51] |
| 716 | 8.8 |  |  |  |  | 81.47 | O=C(NCc1cc2nc(N3CCOc4ccc(C5CCC5)nc43)ccc2cn1)c1ccc2c(c1)S(=O)(=O)CCOC2 [Compound 722] |
|  |  |  | 1710 | 257 | 6.65 |  | Cn1cnc2c1CCCN2c1ccc2cnc(CNC(=O)c3ccc4c(c3)S(=O)(=O)CCOC4)cc2n1 [Compound 688] |
|  |  |  | 176 | 13.2 | 13.32 |  | O=C(NCc1cc2nc(N3CCC4(CC4)c4cccnc43)ccc2cn1)c1ccc2c(c1)S(=O)(=O)CCOC2 [Compound 600] |
| 365 | 25.9 | 14.09 |  |  |  |  | O=C(NCc1cc2nc(-c3cccc(N4CC[C@H](F)C4)n3)ccc2cn1)c1ccc2c(c1)S(=O)(=O)CCOC2 [Compound 224] |
|  |  |  | 247 | 12.1 | 20.44 |  | C[C@H]1COCc2ccc(C(=O)NCc3cc4nc(N5CCOc6cc(Cl)cnc65)ccc4cn3)cc2S1(=O)=O [Compound 646] |
|  |  |  | 528 | 13.7 | 38.63 |  | C[C@@H]1CN(c2cccc(-c3ccc4cnc(CNC(=O)c5cc(Cl)c6c(c5)S(=O)(=O)CCOC6)cc4n3)n2)C[C@H](C)O1 [Compound 389] |
|  |  |  | 4990 | 568 | 8.79 |  | COCCn1cc2c(-c3ccc4cnc(CNC(=O)c5ccc6c(c5)S(=O)(=O)CCOC6)cc4n3)cccc2n1 [Compound 673] |
